Tested on: Endogenous Huntingtin Protein
Experiment: Endogenous Huntingtin Protein Assay (Meso Scale Discovery ELISA-based electrochemiluminescence)
Format: cell-based
Settings: MSD plates coated with MW1 (expanded polyglutamine) or MAB2166 capture antibody; lysates
How it was run: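 MSD electrochemiluminescence sandwich ELISA: MW1 (expanded polyQ) or MAB2166 capture antibody at 1 μg/mL, samples incubated overnight at 4° C. Detection with rabbit monoclonal #5656S then SULFO-TAG anti-rabbit antibody, each 0.25 μg/mL for 1 h at room temperature.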

IC50 [nM]	Structure (SMILES)
100 to 500	CC1(C)CC(n2nnc3cc(-c4ccc(-c5ccoc5)cc4O)nnc32)CC(C)(C)N1 [Cpd 95, 5-(furan-3-yl)-2-[3-(2,2,6,6-tetramethylpiperidin-4-yl)-3H-[1,2,3]triazolo[4,5-c]pyridazin-6-yl]phenol]
≤ 100	CC1(C)CC(n2nnc3cc(-c4ccc(-c5nccs5)cc4O)nnc32)CC(C)(C)N1 [Cpd 96, 2-[3-(2,2,6,6-tetramethylpiperidin-4-yl)-3H-[1,2,3]triazolo[4,5-c]pyridazin-6-yl]-5-(1,3-thiazol-2-yl)phenol]
≤ 100	Cc1nc2cc(-c3cc4nnn(C5CC(C)(C)NC(C)(C)C5)c4nn3)c(O)cc2[nH]1 [Cpd 97, 2-methyl-5-[3-(2,2,6,6-tetramethylpiperidin-4-yl)-3H-[1,2,3]triazolo[4,5-c]pyridazin-6-yl]-1H-benzimidazol-6-ol]
1000 to 3000	CN(C)c1cc(-c2ccc(-c3cc4nnn(C5CC(C)(C)NC(C)(C)C5)c4nn3)c(O)c2)ccn1 [Cpd 100, 5-[2-(dimethylamino)pyridin-4-yl]-2-[3-(2,2,6,6-tetramethylpiperidin-4-yl)-3H-[1,2,3]triazolo[4,5-c]pyridazin-6-yl]phenol]
≤ 100	[2H]C([2H])([2H])n1cc(-c2ccc(-c3cc4cnn(C5CC(C)(C)NC(C)(C)C5)c4nn3)c(O)c2)cn1 [Cpd 102, 5-[1-(^2H3)methyl-1H-pyrazol-4-yl]-2-[1-(2,2,6,6-tetramethylpiperidin-4-yl)-1H-pyrazolo[3,4-c]pyridazin-5-yl]phenol]

Continued, compound first:

Structure (SMILES)	IC50 [nM]
Cn1cc(-c2ccc(-c3cc4cnn(C5CC(C)(C)NC(C)(C)C5)c4nn3)c(O)c2)cn1 [Cpd 98, 5-(1-methyl-1H-pyrazol-4-yl)-2-[1-(2,2,6,6-tetramethylpiperidin-4-yl)-1H-pyrazolo[3,4-c]pyridazin-5-yl]phenol]	≤ 100
CC1(C)CC(n2nnc3cc(-c4ccc(-c5ccnc(N)c5)cc4O)nnc32)CC(C)(C)N1 [Cpd 99, 5-(2-aminopyridin-4-yl)-2-[3-(2,2,6,6-tetramethylpiperidin-4-yl)-3H-[1,2,3]triazolo[4,5-c]pyridazin-6-yl]phenol]	≤ 100
CC1(C)CC(n2nnc3cc(-c4ccc(-c5ccncc5F)cc4O)nnc32)CC(C)(C)N1 [Cpd 101, 5-(3-fluoropyridin-4-yl)-2-[3-(2,2,6,6-tetramethylpiperidin-4-yl)-3H-[1,2,3]triazolo[4,5-c]pyridazin-6-yl]phenol]	500 to 1000
CC1(C)CC(n2nnc3cc(-c4ccc(-c5ccc(OC(F)F)cn5)cc4O)nnc32)CC(C)(C)N1 [Cpd 103, 5-[5-(difluoromethoxy)pyridin-2-yl]-2-[3-(2,2,6,6-tetramethylpiperidin-4-yl)-3H-[1,2,3]triazolo[4,5-c]pyridazin-6-yl]phenol]	100 to 500
CNc1cc(-c2ccc(-c3cc4nnn(C5CC(C)(C)NC(C)(C)C5)c4nn3)c(O)c2)ccn1 [Cpd 104, 5-[2-(methylamino)pyridin-4-yl]-2-[3-(2,2,6,6-tetramethylpiperidin-4-yl)-3H-[1,2,3]triazolo[4,5-c]pyridazin-6-yl]phenol]	≤ 100
CC1(C)C=C(c2coc3cc(-c4ccc(-c5cn[nH]c5)cc4O)nnc23)CC(C)(C)N1 [Cpd 105, 5-(1H-pyrazol-4-yl)-2-[7-(2,2,6,6-tetramethyl-1,2,3,6-tetrahydropyridin-4-yl)furo[3,2-c]pyridazin-3-yl]phenol]	≤ 100
CC1(C)CC(n2nnc3cc(-c4ccc(-c5cncs5)cc4O)nnc32)CC(C)(C)N1 [Cpd 107, 2-[3-(2,2,6,6-tetramethylpiperidin-4-yl)-3H-[1,2,3]triazolo[4,5-c]pyridazin-6-yl]-5-(1,3-thiazol-5-yl)phenol]	≤ 100
Cc1n[nH]cc1-c1ccc(-c2cc3nnn(C4CC(C)(C)NC(C)(C)C4)c3nn2)c(O)c1 [Cpd 108, 5-(3-methyl-1H-pyrazol-4-yl)-2-[3-(2,2,6,6-tetramethylpiperidin-4-yl)-3H-[1,2,3]triazolo[4,5-c]pyridazin-6-yl]phenol]	≤ 100

— patent US11858941B2, “Heterocyclic and heteroaryl compounds for treating Huntington's disease” (PTC THERAPEUTICS, INC., priority 2018, dated 2024)
